The values below come from patent US20240415819A1, “MACROCYCLIC COMPOUNDS AS PROTEASOME SUBUNIT BETA TYPE-5 INHIBITORS” (Lead Discovery Center GmbH, priority 2021, published 2024).

Experiment [1] has as its target T1, β5 subunit of the human immunoproteasome (IPS) (Homo sapiens, UniProt P28062).
T1 construct: purchased Boston Biochem E-370
Description: β5 inhibition assay, human immunoproteasome (Suc-LLVY-AMC). It counts as biochemical. The note with it: IC50 class, Suc-LLVY-AMC substrate. In a few lines:
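Human immunoproteasome (1 nM final) was preincubated 10 min at RT with compound in 100 mM HEPES pH 7.5, 50 mM NaCl, 0.02% SDS, 1 mM DTT. Suc-LLVY-AMC (22.6 μM final) was then added for 4 h at RT in the dark. After stopping with 1 μM bortezomib, AMC fluorescence was read (ex 355/em 460 nm).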

For the next experiment, the system named is HT-29 cells. In words: CellTiter-Glo luminescent cell viability assay with HT-29 cells (72h incubation). The note with it: Homo sapiens, HT-29, HT29 cells, read-out: CTG HT29. It counts as cell-based, human. An outline of the steps: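 400 cells per well in DMEM/10% FCS were dosed after 24 h and kept 72 h at 37 °C, 5% CO2. ATP-based luminescence (CellTiter-Glo) normalized to DMSO and 10 μM staurosporine controls; IC50 by dose-response fit.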
A general note: ATP-based viability assays read luminescence as a measure of living cells.

Another experiment concerns hPMBC. In words: Chymotrypsin-like ProteasomeGlo assay in hPBMC. The note with it: Homo sapiens; read-out: Pglo hPBMC. It counts as cell-based. In a few lines: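 B cells isolated from human PBMC (buffy coats, density gradient, magnetic isolation). Cells treated with compound for 105 min at 37 °C, with staurosporine and DMSO included. Chymotrypsin-like proteasome activity read by luminescence with Suc-LLVY-Glo substrate to derive IC50.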

Consider `CCC(C(=O)N[C@H]1CC(=O)N2CCCC(CCOc3ccc(C)c(c3)CNC(=O)[C@H](CCc3ccccc3)NC1=O)C2)c1ccc(OC)c(OC)c1` (stereo partly drawn) [Compound 64, 2-(3,4-dimethoxyphenyl)-N-((9S,12S)-5^4-methyl-8,11,14-trioxo-9-phenethyl-4-oxa-7,10-diaza-1(3,1)-piperidina-5(1,3)-benzenacyclotetradecaphane-12-yl)butanamide], for which the IC50 (in experiment [1]; in the experiment on HT-29 cells; with hPMBC) was less than 100 nM each time.

Turning to `Cc1ccc2cc1CNC(=O)[C@H](CCc1ccccc1)NC(=O)[C@H](NC(=O)OCc1ccccc1)CC(=O)N1CCC[C@H](CCO2)C1` [Compound 291, benzyl ((13R,9S,12R)-5^4-methyl-8,11,14-trioxo-9-phenethyl-4-oxa-7,10-diaza-1(3,1)-piperidina-5(1,3)-benzenacyclotetradecaphane-12-yl)carbamate], the IC50 was less than 100 nM in experiment [1], less than 100 nM with HT-29 cells and 1000 to 5000 nM in the experiment on hPMBC.

On to `Cc1ccc2cc1CNC(=O)[C@H](CCc1ccccc1)NC(=O)[C@@H](NC(=O)OCc1ccccc1)CC(=O)N1CCC[C@H](CCO2)C1` [Compound 292, benzyl ((13R,9S,12S)-5^4-methyl-8,11,14-trioxo-9-phenethyl-4-oxa-7,10-diaza-1(3,1)-piperidina-5(1,3)-benzenacyclotetradecaphane-12-yl)carbamate], for which the IC50 (in experiment [1]; with HT-29 cells; in the experiment on hPMBC) was less than 100 nM throughout.

Take `Cc1ccc2cc1CNC(=O)[C@H](CCc1ccccc1)NC(=O)[C@@H](NC(=O)OCC1(C)COC1)CC(=O)N1CCCC(CCO2)C1` (stereo partly drawn) [Compound 293, (3-methyloxetan-3-yl)methyl ((9S,12S)-5^4-methyl-8,11,14-trioxo-9-phenethyl-4-oxa-7,10-diaza-1(3,1)-piperidina-5(1,3)-benzenacyclotetradecaphane-12-yl)carbamate]: the IC50 (in experiment [1]; with HT-29 cells; in the experiment with hPMBC) was less than 100 nM throughout.

Take `CC(=O)N[C@H]1CC(=O)N2CCCC(CCOc3ccc(C)c(c3)CNC(=O)C(c3cnn(Cc4ccccc4)c3)NC1=O)C2` (stereo partly drawn) [Compound 565, N-((12S)-9-(1-benzyl-1H-pyrazol-4-yl)-5^4-methyl-8,11,14-trioxo-4-oxa-7,10-diaza-1(3,1)-piperidina-5(1,3)-benzenacyclotetradecaphane-12-yl)acetamide]: the results for the IC50 (in experiment [1]; in the experiment on HT-29 cells; in the experiment on hPMBC) were less than 100 nM, less than 100 nM and 100 to 500 nM, respectively.
